The text below walks through data of ChEMBL document CHEMBL1201862, “PubChem BioAssay data set” (2004).

A word on the CC50: it is the concentration that lowers cell viability or growth by half. As usually defined, the IC50 is the midpoint of a concentration-inhibition curve. Usually EC50 stands for the concentration at which the effect is half-maximal. In general, AC50 refers to the concentration giving half of the maximal activity seen.

Assay [1] relates to Vero. The assay is described as follows: cells. It is filed as functional. The conditions noted are these: Chlorocebus sabaeus.
Assay [2] has as its system Vero. The assay is described as follows: cells. Type of assay: functional, cell-based. The conditions noted are these: Chlorocebus sabaeus.
The target in assay [3] is T1, Carboxy-terminal domain RNA polymerase II polypeptide A small phosphatase 1 (Homo sapiens, UniProt Q9GZU7).
T1 sequence (Q9GZU7 whole entry): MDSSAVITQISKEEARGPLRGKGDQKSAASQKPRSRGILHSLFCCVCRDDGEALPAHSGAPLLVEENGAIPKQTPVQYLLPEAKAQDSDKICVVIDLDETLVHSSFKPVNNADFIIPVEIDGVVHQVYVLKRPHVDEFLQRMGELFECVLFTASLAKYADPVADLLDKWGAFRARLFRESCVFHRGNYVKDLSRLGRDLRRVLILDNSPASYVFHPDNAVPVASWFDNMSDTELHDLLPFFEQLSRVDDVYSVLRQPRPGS
Briefly: inhibitors of CTDSP1, concentration-response testing, biochemical assay, absorbance-based, actives from ultra-high-throughput screening (AID 540297). Type of assay: functional.

Assay [4] addresses DNA dC->dU-editing enzyme APOBEC-3G (Homo sapiens, UniProt Q9HC16). Type of assay: functional.
For assay [5], the target named is DNA dC->dU-editing enzyme APOBEC-3A (Homo sapiens, UniProt P31941). Briefly: Dose Response confirmation of small molecule APOBEC3A DNA Deaminase Inhibitors via a fluorescence-based single-stranded DNA deaminase assay. [Related pubchem assays (depositor defined):AID493011, AID493024]. It is filed as functional.
The target in assay [6] is T2, Exodeoxyribonuclease V (Escherichia coli (strain K12), UniProt P04993+P07648+P08394).
T2 sequence (P04993 whole entry): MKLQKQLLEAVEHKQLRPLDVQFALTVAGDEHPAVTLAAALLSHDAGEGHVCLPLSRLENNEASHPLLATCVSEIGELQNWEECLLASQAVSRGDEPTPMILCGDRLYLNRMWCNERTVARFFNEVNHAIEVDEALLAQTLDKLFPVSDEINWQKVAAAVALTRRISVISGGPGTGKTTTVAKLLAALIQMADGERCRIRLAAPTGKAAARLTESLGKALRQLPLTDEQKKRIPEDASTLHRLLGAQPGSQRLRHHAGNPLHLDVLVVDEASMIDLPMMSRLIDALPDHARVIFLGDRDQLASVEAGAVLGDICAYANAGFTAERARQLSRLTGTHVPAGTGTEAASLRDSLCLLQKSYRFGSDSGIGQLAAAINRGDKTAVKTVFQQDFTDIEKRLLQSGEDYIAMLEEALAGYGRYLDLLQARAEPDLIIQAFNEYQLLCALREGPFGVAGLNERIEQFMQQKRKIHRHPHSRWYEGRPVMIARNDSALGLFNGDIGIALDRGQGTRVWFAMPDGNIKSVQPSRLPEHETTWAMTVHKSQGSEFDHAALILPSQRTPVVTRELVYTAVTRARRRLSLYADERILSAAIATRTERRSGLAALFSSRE
T2 sequence (P07648 whole entry): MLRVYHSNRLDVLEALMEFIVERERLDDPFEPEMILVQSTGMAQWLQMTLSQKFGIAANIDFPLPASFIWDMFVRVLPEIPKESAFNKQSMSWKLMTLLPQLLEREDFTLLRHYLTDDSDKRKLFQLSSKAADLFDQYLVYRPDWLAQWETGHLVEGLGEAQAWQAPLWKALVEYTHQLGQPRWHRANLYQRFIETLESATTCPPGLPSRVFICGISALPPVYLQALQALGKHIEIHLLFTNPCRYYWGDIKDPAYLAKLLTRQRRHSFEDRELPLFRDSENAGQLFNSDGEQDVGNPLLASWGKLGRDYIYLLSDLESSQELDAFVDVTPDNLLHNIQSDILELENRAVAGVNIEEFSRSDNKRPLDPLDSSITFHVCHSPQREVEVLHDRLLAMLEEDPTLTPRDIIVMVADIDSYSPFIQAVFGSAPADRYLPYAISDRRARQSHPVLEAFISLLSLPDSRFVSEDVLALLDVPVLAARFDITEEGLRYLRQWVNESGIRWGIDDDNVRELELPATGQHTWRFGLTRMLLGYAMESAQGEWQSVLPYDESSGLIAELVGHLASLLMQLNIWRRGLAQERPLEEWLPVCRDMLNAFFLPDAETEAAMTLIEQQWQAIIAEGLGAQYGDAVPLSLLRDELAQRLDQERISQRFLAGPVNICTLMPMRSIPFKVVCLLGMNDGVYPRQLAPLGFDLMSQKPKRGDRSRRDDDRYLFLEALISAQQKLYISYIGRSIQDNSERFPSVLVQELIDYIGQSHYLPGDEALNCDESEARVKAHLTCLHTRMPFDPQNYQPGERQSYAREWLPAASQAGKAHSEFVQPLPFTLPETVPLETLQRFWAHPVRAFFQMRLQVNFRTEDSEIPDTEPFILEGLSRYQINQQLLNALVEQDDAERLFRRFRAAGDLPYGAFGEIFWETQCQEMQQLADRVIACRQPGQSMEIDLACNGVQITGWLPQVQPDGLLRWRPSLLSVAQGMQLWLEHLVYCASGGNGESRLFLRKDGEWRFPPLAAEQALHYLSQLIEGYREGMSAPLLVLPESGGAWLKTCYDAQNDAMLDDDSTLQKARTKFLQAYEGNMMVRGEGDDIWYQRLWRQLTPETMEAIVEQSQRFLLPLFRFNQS
T2 sequence (P08394 whole entry): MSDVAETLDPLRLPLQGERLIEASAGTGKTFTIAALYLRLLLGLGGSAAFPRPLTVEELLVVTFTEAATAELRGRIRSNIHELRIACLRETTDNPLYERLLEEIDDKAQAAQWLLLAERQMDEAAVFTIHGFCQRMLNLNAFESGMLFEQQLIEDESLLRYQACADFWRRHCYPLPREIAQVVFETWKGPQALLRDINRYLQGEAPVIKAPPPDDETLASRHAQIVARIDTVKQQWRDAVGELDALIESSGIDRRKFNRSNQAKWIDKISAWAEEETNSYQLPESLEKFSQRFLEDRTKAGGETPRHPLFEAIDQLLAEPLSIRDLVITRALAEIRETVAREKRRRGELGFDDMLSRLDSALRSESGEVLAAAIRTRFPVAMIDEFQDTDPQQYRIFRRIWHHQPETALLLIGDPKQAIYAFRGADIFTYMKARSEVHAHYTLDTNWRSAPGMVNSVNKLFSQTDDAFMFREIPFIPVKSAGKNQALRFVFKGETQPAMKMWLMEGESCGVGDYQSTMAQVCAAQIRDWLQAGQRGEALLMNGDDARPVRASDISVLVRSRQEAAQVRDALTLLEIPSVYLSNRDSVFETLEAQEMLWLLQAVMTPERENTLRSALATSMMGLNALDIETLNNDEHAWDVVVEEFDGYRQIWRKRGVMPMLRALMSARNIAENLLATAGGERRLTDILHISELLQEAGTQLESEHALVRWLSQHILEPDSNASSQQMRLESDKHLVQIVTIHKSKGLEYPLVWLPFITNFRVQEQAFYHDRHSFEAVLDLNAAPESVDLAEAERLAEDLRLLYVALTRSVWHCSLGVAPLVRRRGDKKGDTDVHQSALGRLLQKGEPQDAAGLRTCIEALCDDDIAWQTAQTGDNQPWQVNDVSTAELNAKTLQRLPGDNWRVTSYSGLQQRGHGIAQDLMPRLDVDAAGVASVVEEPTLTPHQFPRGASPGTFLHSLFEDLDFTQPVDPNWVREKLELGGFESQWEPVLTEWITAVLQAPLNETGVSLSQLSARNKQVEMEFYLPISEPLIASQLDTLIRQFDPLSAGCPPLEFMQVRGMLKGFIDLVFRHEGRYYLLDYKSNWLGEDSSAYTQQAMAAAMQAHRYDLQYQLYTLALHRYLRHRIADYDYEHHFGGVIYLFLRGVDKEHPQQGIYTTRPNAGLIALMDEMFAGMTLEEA
The assay is described as follows: E. coli RecBCD inhibitors, dose response, counter-screen for AddAB inhibitor project, absorbance, V66 E. coli, mutant T4 phage (AID 492957). Type of assay: functional, cell-based, Escherichia coli str. K-12 substr. MG1655.

Assay [7] is described as follows: Counterscreen for AddAB inhibitors: absorbance-based bacterial cell-based high throughput dose response assay for inhibitors of bacterial viability. [Related pubchem assays (depositor defined):AID435030, AID449728, AID449731, AID488942, AID488955, AID488956]. It is filed as functional. (In general: A counterscreen serves to expose hits that act by an unwanted route or on another target.)

Assay [8] concerns the target T3, Protein skinhead-1 (Caenorhabditis elegans, UniProt P34707).
T3 sequence (P34707 whole entry): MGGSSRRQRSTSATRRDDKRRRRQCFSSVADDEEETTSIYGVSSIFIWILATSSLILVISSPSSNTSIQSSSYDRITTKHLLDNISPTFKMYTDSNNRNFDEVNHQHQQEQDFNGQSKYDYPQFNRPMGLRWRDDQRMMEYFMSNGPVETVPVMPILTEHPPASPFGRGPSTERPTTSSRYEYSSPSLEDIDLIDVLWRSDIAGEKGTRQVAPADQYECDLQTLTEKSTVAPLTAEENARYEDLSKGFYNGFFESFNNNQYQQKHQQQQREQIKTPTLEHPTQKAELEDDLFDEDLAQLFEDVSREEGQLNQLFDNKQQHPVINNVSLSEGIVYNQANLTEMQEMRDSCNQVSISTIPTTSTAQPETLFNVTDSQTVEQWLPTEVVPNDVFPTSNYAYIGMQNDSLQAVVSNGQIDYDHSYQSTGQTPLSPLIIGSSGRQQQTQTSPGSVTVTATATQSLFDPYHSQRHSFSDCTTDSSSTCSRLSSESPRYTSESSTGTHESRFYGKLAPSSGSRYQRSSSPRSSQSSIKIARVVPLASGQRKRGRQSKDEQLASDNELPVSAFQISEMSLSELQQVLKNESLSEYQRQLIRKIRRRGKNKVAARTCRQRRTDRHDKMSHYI
Type of assay: functional.

In assay [9] the test system is BJ. The assay is described as follows: cytotoxicity toward Ras-transformed BJeLR fibroblasts, dose response, cell-based, alamar blue fluorescence, cherrypicked samples (AID 2631).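 Also: confirmatory dose-response assay in RAS-dependent BJ fibroblasts engineered with TERT, LT and ST, with cytotoxicity read by fluorescence.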 It is filed as functional. The conditions noted are these: Homo sapiens.
The test system of assay [10] is INS1. The assay is described as follows: beta cell apoptosis inhibitors, cytokine rescue, dose response, luminescence, retest (AID 449756).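 Also: cell death triggered by IL-1 beta plus TNF-alpha plus IFN-gamma mixture; protective hits raise ATP signal compared with cytokine alone wells.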 It is filed as functional, cell-based. The conditions noted are these: Rattus norvegicus.
A short description of assay [11]: cells. It is filed as functional, cell-based.
The nature of assay [12]: cytotoxicity toward DRD oncogenic fibroblasts, dose response, cell-based, non-viral oncogenic, luminescence (AID 1934). To be noted: Homo sapiens. It is filed as functional.
For assay [13], the system named is BJ. The assay is described as follows: cells. Type of assay: functional, cell-based. The conditions noted are these: Homo sapiens.
Assay [14] is described as follows: cells. It is filed as functional, cell-based. This is another data set of the same source.
Assay [15] concerns BJ. Briefly: cytotoxicity toward BJ-TERT fibroblasts, dose response, cell-based, RAS-independent, luminescence (AID 1933). It is filed as functional. To be noted: Homo sapiens.
The test system of assay [16] is BJ. Briefly: cytotoxicity toward BJ-TERT-LT-ST fibroblasts, dose response, cell-based, RAS-independent, luminescence (AID 1935).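 Also: BJ fibroblasts immortalized with TERT plus LT and ST oncogenes.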 It is filed as functional. The conditions noted are these: Homo sapiens.

Calls of active or inactive are those of the source.

Sequence of DNA dC->dU-editing enzyme APOBEC-3G (Q9HC16 whole entry): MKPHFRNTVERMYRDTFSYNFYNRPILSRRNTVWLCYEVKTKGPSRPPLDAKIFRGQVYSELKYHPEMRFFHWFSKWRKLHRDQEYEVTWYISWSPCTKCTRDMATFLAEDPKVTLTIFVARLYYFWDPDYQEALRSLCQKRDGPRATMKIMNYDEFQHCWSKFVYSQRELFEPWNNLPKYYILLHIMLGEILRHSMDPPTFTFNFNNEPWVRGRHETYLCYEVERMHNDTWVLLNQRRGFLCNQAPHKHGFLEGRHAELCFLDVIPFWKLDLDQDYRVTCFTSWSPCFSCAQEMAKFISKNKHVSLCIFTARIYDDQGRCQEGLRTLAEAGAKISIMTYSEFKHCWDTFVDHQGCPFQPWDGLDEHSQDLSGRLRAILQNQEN
Sequence of DNA dC->dU-editing enzyme APOBEC-3A (P31941 whole entry): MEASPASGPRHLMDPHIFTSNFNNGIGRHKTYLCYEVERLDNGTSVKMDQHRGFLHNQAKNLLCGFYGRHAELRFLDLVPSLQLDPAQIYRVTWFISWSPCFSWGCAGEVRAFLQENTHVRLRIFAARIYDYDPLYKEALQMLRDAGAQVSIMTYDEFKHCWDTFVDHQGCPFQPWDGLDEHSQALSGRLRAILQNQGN

For the compound `Cn1cc(CN2CCCC(C(=O)Nc3ccc(-c4cccc(F)c4)cc3)C2)cn1` (stereo not drawn), in assay [1], the CC50 is 22.3 µM (active). In addition, in [2], the IC50 is 22.6 µM (active).

Take `CN(C)CCCN(C(=O)c1ccc2c(c1)OCCO2)c1nc2ccc(Cl)cc2s1`: in [1], the CC50 was > 25 µM (active). In addition, the IC50 in assay [2] was > 25 µM (active).

Consider `Cc1ccn2c(=O)nc(SCC(=O)NCc3ccccc3Cl)nc2c1`, for which the IC50 in assay [3] is 8.34 µM (active).

On to `CC(c1ccccc1)C1OCC(C[N+]2(C)CCCCC2)O1` (stereo not drawn), for which the IC50 is 2.75 µM (active) in assay [3], 2.72 µM (active) in assay [4] and 2.81 µM (active) in assay [5].

As for `Cc1c(C(=O)O)cccc1-c1ccc(/C=N/n2cnnc2)o1`, in [3], the IC50 is 6.52 µM (active).

Take `O=C(Cn1cnc2ccccc21)Nc1ccc2c(c1)OCCCO2`: the IC50 in [6] and in [7] was > 119 µM (inactive) in each case.

Consider `COc1ccc(C(=O)/C=C/c2ccc(OC)c(CN3CCOCC3)c2)cc1`, for which, in [1], the CC50 is 22.6 µM (active). The results for the IC50 in [8] and in assay [2] were 6.86 µM (active) and 9.3 µM (active), respectively.

Turning to `C/C(=N\Nc1ccc2nncn2n1)c1ccccn1`, the EC50 in assay [9] was 0.912 µM (active); in assay [11], > 350 µM (not active); in assay [12], 4.95 µM (active); in [13], 4.29 µM (active); in assay [14], 6.99 µM (active); in assay [15] it was 16 µM (active). For the same compound, the EC50 in [16] was 8.41 µM (inconclusive). The AC50 in [10] is 0.898 µM (active). For the same compound, the IC50 in assay [6] is 57.1 µM (inactive); in [7], 114 µM (inactive).

Consider `C/C(=N\NC1=NC(=O)C(CC(=O)O)S1)c1ccccn1` (stereo not drawn), for which the IC50 is 73.3 µM (inactive) in assay [6] and > 118 µM (inactive) in assay [7].

For `CN1CCN(CCCN2c3ccccc3Sc3ccc(S(=O)(=O)N(C)C)cc32)CC1`, the CC50 in assay [1] was > 25 µM (active). Also, in assay [2], the IC50 is > 25 µM (active).
